The numbers were not newly measured in US20230330238A1, “CHIMERIC CONJUGATES FOR DEGRADATION OF VIRAL AND HOST PROTEINS AND METHODS OF USE” (Dana-Farber Cancer Institute, Inc., priority 2020, published 2023), which cites them from elsewhere.

The conditions of the data set: FIG. 8A, identical to FIG. 1C in Bernal F., et al. 2007; cited from earlier work.

As for LSQETF(R8)DLWKLL(S5)EN [SAH-p53-4], the “α-helical stabilization (helicity by circular dichroism)” value is “more stable than SAH-p53-1-3”.
